PMC11241008, “Response Plasticity of Drosophila Olfactory Sensory Neurons” (International Journal of Molecular Sciences, 2024)

Tests used:
[1] = molecular target: T1, Or56a (Drosophila melanogaster, UniProt Q9V8Y7); assay: GCaMP6f calcium imaging of native OSN somata, open antenna; conditions: agonist; Drosophila Ringer pH 7.3; Hill coefficient 0.6; concentration as applied; n = 9
T1 construct: native receptor in ab4B olfactory sensory neurons of excised open antenna, with endogenous Orco; GCaMP6f calcium reporter; no heterologous expression; with Odorant receptor coreceptor
T1 sequence (Q9V8Y7 1-419): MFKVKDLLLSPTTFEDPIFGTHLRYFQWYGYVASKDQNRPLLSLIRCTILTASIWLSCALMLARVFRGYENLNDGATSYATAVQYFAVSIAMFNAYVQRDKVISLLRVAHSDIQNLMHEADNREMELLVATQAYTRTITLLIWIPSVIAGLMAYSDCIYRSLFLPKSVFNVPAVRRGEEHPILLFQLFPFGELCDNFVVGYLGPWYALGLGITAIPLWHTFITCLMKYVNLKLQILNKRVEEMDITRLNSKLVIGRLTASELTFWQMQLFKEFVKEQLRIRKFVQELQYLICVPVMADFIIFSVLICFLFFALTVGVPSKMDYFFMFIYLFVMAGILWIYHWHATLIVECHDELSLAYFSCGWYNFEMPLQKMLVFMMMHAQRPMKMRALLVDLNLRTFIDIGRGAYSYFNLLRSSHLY
T1 sequence (Q9VNB5 1-486 partner): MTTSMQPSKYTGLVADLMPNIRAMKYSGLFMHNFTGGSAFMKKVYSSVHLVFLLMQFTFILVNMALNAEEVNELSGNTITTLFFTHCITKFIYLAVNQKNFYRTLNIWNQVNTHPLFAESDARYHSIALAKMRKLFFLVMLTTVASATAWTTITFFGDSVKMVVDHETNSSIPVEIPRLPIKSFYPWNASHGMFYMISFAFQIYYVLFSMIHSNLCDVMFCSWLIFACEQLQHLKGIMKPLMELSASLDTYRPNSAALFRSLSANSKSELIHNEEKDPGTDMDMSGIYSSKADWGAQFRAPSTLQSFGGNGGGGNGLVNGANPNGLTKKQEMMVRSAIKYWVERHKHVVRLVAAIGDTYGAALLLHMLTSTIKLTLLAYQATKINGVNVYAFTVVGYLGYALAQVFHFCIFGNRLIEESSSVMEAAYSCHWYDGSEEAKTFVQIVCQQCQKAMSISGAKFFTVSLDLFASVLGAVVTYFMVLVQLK

[2] = molecular target: T2, Or22a (Drosophila melanogaster, UniProt P81909); assay: as above; conditions: agonist; Drosophila Ringer pH 7.3; Hill coefficient 0.8; concentration as applied; n = 12
T2 construct: native receptor in ab3A olfactory sensory neurons of excised open antenna, with endogenous Orco; GCaMP6f calcium reporter; no heterologous expression; with Odorant receptor coreceptor
T2 sequence (P81909 1-397): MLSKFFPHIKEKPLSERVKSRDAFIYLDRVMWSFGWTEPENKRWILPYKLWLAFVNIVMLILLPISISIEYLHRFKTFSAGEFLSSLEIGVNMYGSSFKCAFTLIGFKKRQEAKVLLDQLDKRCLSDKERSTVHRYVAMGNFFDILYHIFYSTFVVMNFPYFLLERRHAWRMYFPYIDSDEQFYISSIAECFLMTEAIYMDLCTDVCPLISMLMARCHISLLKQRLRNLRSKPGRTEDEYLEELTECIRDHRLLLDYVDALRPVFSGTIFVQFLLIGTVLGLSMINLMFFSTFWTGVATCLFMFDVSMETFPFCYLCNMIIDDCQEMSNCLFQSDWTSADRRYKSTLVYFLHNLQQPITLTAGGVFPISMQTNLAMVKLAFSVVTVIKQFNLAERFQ
T2 sequence (Q9VNB5 1-486 partner): T1 sequence (Q9VNB5 1-486 partner)

In the case of `CC1CCCC2(C)CCCCC12O` (racemic) [geosmin], the EC50 [1] is reported as 25 nM.

`CCCCCC(=O)OCC` [ethyl hexanoate] gave an EC50 [2] of 1500 nM.
